In patent US20200337992A1, “Auricular Cleaning Composition” (priority 2015, published 2020):

Assay: In vitro cerumenolytic effect test on synthetic cerumen
Conditions: for % of cerumen removed: Table 3, total after four successive applications; for cerumenolytic activity / cerumenolytic effect: cf. FIG. 1, in vitro test
Description: Thus, the selected formula of the synthetic cerumen which makes it possible to evaluate the in vitro cerumenolytic effect of agents is the following: [table] In order to select a new combination of cerumenolytic agents, the cerumenolytic effect test was employed using the cerumen described in the table above. […] The distribution is carried out in such a way that the cerumen is present only in the bottom of the tube and not on the edges or the opening, which could distort the results. The tubes are then left to stand for the amount of time required for the cerumen to solidify. The distribution is carried out the day before the in vitro test in order to leave the cerumen with a minimum of 24 h to cool and solidify. The dimensions of the test tube, the temperature at which the test was carried out and the amount of synthetic cerumen were chosen to represent as faithfully as possible, in vitro, the dog ear canal. According to these parameters, the procedure followed for measuring the in vitro effectiveness of an agent or of a combination of agents having a cerumenolytic effect is the following: =>The test tube containing only the cerumen is weighed before the test. […] =>The test tube is then attached to a stirring turbine and immersed in a bath of water heated to 35° C. (the water height is sufficient for the content of the tube (cerumen+test product) to be immersed. =>The stirring is maintained for 20 minutes at 50 rpm. […] This step makes it possible to remove the product and the cerumen debris detached by the cerumenolytic agent. =>At the end of the time elapsed, the tube is weighed to evaluate the amount of cerumen removed. =>This process is carried out four times in a row, on each same tube, in order to simulate and evaluate the application number required to remove the cerumen plug present in the dog ear canal. Each time, the cerumen remaining at the bottom of the tube is dried and then weighed. […] As previously indicated, in order to check the effectiveness of an agent, the test tubes are weighed before the test is carried out and after the phase of leaving to stand upside down for 1 h. The removal of the cerumen is, according to this process, evaluated as for this example: =>Weight of the tube A before test 1: 3.493 g and weight of the tube A after test 1: 3.449 g =>Percentage of cerumen removed: […] The percentages are thus calculated for each test: from 1 to 4. The total percentage of cerumen removed is obtained after having repeated the operation successively four times for one and the same tube.

[1] = 500 mg synthetic cerumen, 2 ml test product, 35° C., 20 minutes at 50 rpm

| SMILES | % of cerumen removed [1] [%] | cerumenolytic activity / cerumenolytic effect | % cerumen removed (after test 4) (Table 4, 500 mg synthetic cerumen, 2 ml test product, 35° C., 20 minutes at 50 rpm, after test 4) [%] |
| --- | --- | --- | --- |
| CC(C)O [100% Isopropyl alcohol, isopropyl alcohol] | 66 | about 60% |  |
| CCOCCOCCO [100% Transcutol ®, 2-(2-ethoxyethoxy)ethanol] | 100 | ~100% | 100.0 |
